# What was measured:
# Format in all cases: binding
# P2RY4 = molecular target: T1, P2RY4 (Homo sapiens, UniProt P51582); experiment: NanoBRET screen HiBiT-P2RY4 in HEK293
# T1 construct: purchased Promega (in-house HiBiT-GPCR construct library, NanoBRET)
# Experimental: (§1) Each tracer candidate was screened across the entire library of HiBiT-GPCR constructs using NanoBRET as the detection modality. As depicted in Figure 4A, the specificity of interactions was evaluated through decrease in BRET due to competitive displacement of a bound tracer by excess parental compound. Each tracer was analyzed for binding to each HiBiT-GPCR fusion in the absence and in the presence of competing parental compound. Briefly, HEK293 cells were transfected with HiBiT-GPCR constructs diluted into promoterless DNA to reduce expression and maximize translocation to the cell surface. Each tracer candidate was then screened at concentrations of 1 μM and 0.1 μM across cells expressing these fusions. Cells were treated for 1.5 h with tracer either alone or in the presence of 20 μM competing parental compound (i.e., control). BRET was measured upon addition of purified LgBiT and subsequent complementation with HiBiT genetically fused to a GPCR. The specificity of interactions was assessed through a decrease in BRET signal due to competitive displacement of the bound tracer. To further gauge the robustness of these interactions, the fold response over the control (i.e., BRETtracer/BRETcontrol) was calculated. We chose a 1.5-fold response, which translates to ≥7-fold signal over noise as the minimal threshold required to score an interaction as positive. […]. Below we highlight the screening results obtained for our exemplary fluorescent tracers based on Clozapine, Amitriptyline and AZD1283.
# (§2) HiBiT-GPCR DNA constructs were diluted in 10 mM Tris pH 8 to a final concentration of 0.01 μg/μL, arrayed in 96-well plates and stored at −20 °C. For transfection, HEK293 cells were suspended in Opti-MEM (without phenol red) supplemented with 2% fetal bovine serum (Seradigm) and 100 units/mL penicillin–streptomycin (Gibco) at a final concentration of 220,000 cells/mL and dispensed into white 96-well plates at 90 μL/well. Subsequent transfections and screens were carried using an Agilent Bravo Automated Liquid Handling Platform. First, the 96-well HiBiT DNA arrays were diluted 25-fold in Opti-MEM (without serum or phenol red) to a final concentration of 0.0004 μg/μL and 20 μL of the diluted DNAs were transferred into new 96-well plates. Next, promoterless carrier DNA (1 μg/μL) was diluted 25-fold (0.04 μg/μL) and then dispensed into the diluted arrays at 20 μL/well. Following brief mixing, Viafect transfection reagent (Promega) diluted 16-fold into Opti-MEM was dispensed into the plates at 40 μL/well. After mixing by pipetting, plates were incubated for 10 min on the pipetting station deck. The DNA-transfection reagent complexes were then added to plates containing cells. To facilitate the screen, 10 μL of DNA-transfection reagent complexes were added in duplicates to the top 4 and bottom 4 rows, resulting in two identical 48-well arrays per plate. Plates with transfected cells were incubated for 18–20 h at 37 °C/5% CO2. A screen of each tracer across the entire library using two different concentrations requires duplicate plates of transfected cells. Depending on the number of tracers being screened, transfections can be scaled up using the same ratios. The next day, for each tracer, four 20× screening solutions in tracer dilution buffer (Promega) were prepared: two duplicates at final concentration of 20 μM and two duplicates at a final concentration of 2 μM. A competing unmodified compound was added to one of each duplicate at a final concentration of 400 μM. The four resulting solutions were diluted 4-fold in Opti-MEM without serum or phenol red to generate 5× solutions (5 µM and 0.5 µM tracer +/− 100 μM competing compound). To screen the library, a BioTek MultiFlo FX liquid dispenser was used to dispense 22.5 µL of tracer solution to the top 4 rows and 22.5 µL tracer + competing compound solution to the 4 bottom rows. Plates were briefly mixed on an orbital shaker and incubated for 1.5 h at room temperature. […]
# HTR5A = molecular target: T2, HTR5A (Homo sapiens, UniProt P47898); experiment: NanoBRET screen HiBiT-HTR5A in HEK293
# T2 construct: purchased Promega (in-house HiBiT-GPCR construct library, NanoBRET)
# T2 sequence (P47898 whole entry): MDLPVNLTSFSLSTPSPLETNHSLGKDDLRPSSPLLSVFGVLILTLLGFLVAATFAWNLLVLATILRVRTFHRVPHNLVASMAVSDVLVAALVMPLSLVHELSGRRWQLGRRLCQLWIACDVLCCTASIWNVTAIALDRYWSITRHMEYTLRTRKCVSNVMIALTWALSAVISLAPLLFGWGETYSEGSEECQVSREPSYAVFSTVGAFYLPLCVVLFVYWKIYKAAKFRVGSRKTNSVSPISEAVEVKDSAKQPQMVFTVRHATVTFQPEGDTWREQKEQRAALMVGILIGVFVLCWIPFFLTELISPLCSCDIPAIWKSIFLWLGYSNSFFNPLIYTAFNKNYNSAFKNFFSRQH
# Experimental: as §1, §2
# LTB4R2 = molecular target: T3, LTB4R2 (Homo sapiens, UniProt Q9NPC1); experiment: NanoBRET screen HiBiT-LTB4R2 in HEK293
# T3 construct: purchased Promega (in-house HiBiT-GPCR construct library, NanoBRET)
# T3 sequence (Q9NPC1 1-358): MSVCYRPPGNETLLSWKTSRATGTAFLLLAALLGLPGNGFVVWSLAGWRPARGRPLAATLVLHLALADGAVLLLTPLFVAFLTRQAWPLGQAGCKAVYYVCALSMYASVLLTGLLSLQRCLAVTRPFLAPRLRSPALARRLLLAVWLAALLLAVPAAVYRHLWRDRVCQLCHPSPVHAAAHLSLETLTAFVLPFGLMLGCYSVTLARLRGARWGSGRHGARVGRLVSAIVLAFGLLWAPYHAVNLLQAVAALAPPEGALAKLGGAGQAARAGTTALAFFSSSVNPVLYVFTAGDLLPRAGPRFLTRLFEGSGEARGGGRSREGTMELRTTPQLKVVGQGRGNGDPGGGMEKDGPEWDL
# Experimental: as §1, §2
# PTGFR = molecular target: T4, PTGFR (Homo sapiens, UniProt P43088); experiment: NanoBRET screen HiBiT-PTGFR in HEK293
# T4 construct: purchased Promega (in-house HiBiT-GPCR construct library, NanoBRET)
# T4 sequence (P43088 whole entry): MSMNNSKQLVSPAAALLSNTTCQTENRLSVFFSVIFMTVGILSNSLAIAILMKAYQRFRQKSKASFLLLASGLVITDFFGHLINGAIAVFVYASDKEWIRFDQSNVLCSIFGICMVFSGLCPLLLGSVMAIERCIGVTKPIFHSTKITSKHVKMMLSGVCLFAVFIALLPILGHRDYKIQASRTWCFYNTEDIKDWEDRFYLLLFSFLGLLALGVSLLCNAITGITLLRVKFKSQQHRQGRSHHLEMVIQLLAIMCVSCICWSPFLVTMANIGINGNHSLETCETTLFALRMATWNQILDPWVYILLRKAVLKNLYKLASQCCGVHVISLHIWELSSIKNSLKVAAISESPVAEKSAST
# Experimental: as §1, §2
# GALR1 = molecular target: T5, GALR1 (Homo sapiens, UniProt P47211); experiment: NanoBRET screen HiBiT-GALR1 in HEK293
# T5 construct: purchased Promega (in-house HiBiT-GPCR construct library, NanoBRET)
# T5 sequence (P47211 1-349): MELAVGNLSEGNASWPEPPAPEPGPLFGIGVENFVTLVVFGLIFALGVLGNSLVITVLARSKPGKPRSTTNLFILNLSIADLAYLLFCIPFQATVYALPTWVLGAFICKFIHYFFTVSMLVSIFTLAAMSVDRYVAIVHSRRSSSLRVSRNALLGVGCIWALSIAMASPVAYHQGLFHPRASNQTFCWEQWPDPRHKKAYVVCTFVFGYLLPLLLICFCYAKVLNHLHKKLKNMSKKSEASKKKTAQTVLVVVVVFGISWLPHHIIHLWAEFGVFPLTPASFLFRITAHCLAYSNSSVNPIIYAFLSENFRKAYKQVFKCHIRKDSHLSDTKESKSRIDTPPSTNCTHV
# Experimental: as §1, §2
# OXER1 = molecular target: T6, OXER1 (Homo sapiens, UniProt Q8TDS5); experiment: NanoBRET screen HiBiT-OXER1 in HEK293
# T6 construct: purchased Promega (in-house HiBiT-GPCR construct library, NanoBRET)
# T6 sequence (Q8TDS5 whole entry): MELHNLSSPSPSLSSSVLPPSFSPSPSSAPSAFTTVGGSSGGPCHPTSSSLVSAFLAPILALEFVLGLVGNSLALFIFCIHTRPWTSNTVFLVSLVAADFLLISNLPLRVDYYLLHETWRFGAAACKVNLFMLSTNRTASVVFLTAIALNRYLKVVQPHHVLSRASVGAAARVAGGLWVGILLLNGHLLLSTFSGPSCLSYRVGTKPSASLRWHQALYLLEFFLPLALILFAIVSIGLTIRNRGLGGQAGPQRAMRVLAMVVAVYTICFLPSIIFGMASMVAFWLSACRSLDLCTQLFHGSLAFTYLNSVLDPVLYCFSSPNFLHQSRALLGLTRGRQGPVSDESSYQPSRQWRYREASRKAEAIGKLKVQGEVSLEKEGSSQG
# Experimental: as §1, §2
# T1 sequence (P51582 whole entry): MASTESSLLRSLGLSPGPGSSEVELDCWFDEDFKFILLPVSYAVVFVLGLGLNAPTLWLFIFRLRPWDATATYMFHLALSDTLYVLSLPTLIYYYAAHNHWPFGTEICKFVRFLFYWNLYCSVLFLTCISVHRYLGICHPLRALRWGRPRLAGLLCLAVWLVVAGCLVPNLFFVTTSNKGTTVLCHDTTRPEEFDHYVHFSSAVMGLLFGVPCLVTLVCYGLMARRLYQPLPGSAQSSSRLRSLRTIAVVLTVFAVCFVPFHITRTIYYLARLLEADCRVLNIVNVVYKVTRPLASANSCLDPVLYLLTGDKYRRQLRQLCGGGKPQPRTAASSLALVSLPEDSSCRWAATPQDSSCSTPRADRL
SMILES,NanoBRET Fold Response (P2RY4; 0.1μM tracer),NanoBRET Fold Response (P2RY4; 1μM tracer),NanoBRET Fold Response (HTR5A; 0.1μM tracer),NanoBRET Fold Response (HTR5A; 1μM tracer),NanoBRET Fold Response (PTGFR; 0.1μM tracer),NanoBRET Fold Response (PTGFR; 1μM tracer),NanoBRET Fold Response (GALR1; 0.1μM tracer),NanoBRET Fold Response (GALR1; 1μM tracer),NanoBRET Fold Response (OXER1; 0.1μM tracer),NanoBRET Fold Response (OXER1; 1μM tracer),NanoBRET Fold Response (LTB4R2; 0.1μM tracer),NanoBRET Fold Response (LTB4R2; 1μM tracer),"NanoBRET Fold Response (P2RY4; P2RY4, 0.1μM tracer)","NanoBRET Fold Response (P2RY4; P2RY4, 1μM tracer)","NanoBRET Fold Response (HTR5A; HTR5A, 0.1μM tracer)","NanoBRET Fold Response (HTR5A; HTR5A, 1μM tracer)","NanoBRET Fold Response (PTGFR; PTGFR, 0.1μM tracer)","NanoBRET Fold Response (PTGFR; PTGFR, 1μM tracer)","NanoBRET Fold Response (GALR1; GALR1, 0.1μM tracer)","NanoBRET Fold Response (GALR1; GALR1, 1μM tracer)",further results
CN(CCC=C1c2ccccc2CCc2ccccc21)C(=O)CCOCCOCCOCCOCCNC(=O)CCc1ccc2n1[B-](F)(F)[N+]1=C(c3ccc[nH]3)C=CC1=C2 [Amitriptyline-e-2-NB590],–,–,–,–,–,–,–,–,–,–,–,–,–,–,–,–,–,–,–,–,NanoBRET Fold Response (P2RY4; tracer at 1μM): 1.04; NanoBRET Fold Response (HTR5A; tracer at 1μM): 1.05; NanoBRET Fold Response (LTB4R2; tracer at 1μM): 1.06
COc1ccc2c(n1)c(CCNC(C)=O)cn2CCNC(=O)CCc1ccc2n1[B-](F)(F)[N+]1=C(c3ccc[nH]3)C=CC1=C2 [Azamelatonin-1-NB590],1.10,1.10,0.89,0.89,1.13,0.90,1.06,1.00,1.39,1.06,1.02,1.02,–,–,–,–,–,–,–,–,–
COc1ccc2[nH]c(-c3ccc(CNC(=O)CCOCCOCCOCCOCCNC(=O)CCc4ccc5n4[B-](F)(F)[N+]4=C(c6ccc[nH]6)C=CC4=C5)cc3)c(CCNC(C)=O)c2n1 [AzomelatoninICO9-2-NB590],1.03,1.13,1.02,0.84,0.97,0.91,0.87,1.05,1.11,0.83,1.38,0.99,–,–,–,–,–,–,–,–,–
O=C(CCOCCOCCOCCOCCNC(=O)CCc1ccc2n1[B-](F)(F)[N+]1=C(c3ccc[nH]3)C=CC1=C2)NCCCN1CCN(C2=Nc3cc(Cl)ccc3Nc3ccccc32)CC1 [Clozapine-a-2-NB590],–,–,–,–,–,–,–,–,–,–,–,–,1.09,0.96,1.11,1.29,1.04,1.02,1.05,1.09,"NanoBRET Fold Response (OXER1; OXER1, 0.1μM tracer): 0.95; NanoBRET Fold Response (OXER1; OXER1, 1μM tracer): 1.00; NanoBRET Fold Response (LTB4R2; LTB4R2, 0.1μM tracer): 1.03; NanoBRET Fold Response (LTB4R2; LTB4R2, 1μM tracer): 0.88"
CN1CCN(C2=Nc3cc(Cl)ccc3Nc3ccc(CNC(=O)CCOCCOCCOCCOCCNC(=O)CCc4ccc5n4[B-](F)(F)[N+]4=C(c6ccc[nH]6)C=CC4=C5)cc32)CC1 [Clozapine-b-2-NB590],–,–,–,–,–,–,–,–,–,–,–,–,0.97,0.97,1.07,1.35,1.02,1.07,0.99,0.99,"NanoBRET Fold Response (OXER1; OXER1, 0.1μM tracer): 0.97; NanoBRET Fold Response (OXER1; OXER1, 1μM tracer): 0.95; NanoBRET Fold Response (LTB4R2; LTB4R2, 0.1μM tracer): 0.97; NanoBRET Fold Response (LTB4R2; LTB4R2, 1μM tracer): 1.16"
